Results: a melting point compilation (Tetko et al.)

SMILES	melting point
COc1ccc(NS(=O)(=O)c2cccc(N)c2)cc1	109 to 111 °C
Cc1ccc(N2C(=O)CSC2=S)cc1	168 to 170 °C
C=CCOc1c(Br)cc(C=O)cc1OC	52 to 53 °C
CCS(=O)(=O)c1ccc(Cl)cc1C(=O)O	104 to 106 °C
CC(C)(C)OC(=O)NCC(C(=O)O)c1ccccc1 (stereo not drawn)	144 to 146 °C
O=S(=O)(Cl)Cc1c(F)cccc1F	73 to 75 °C
CCOC(=O)/C(C#N)=C\Nc1ccc(CC)cc1	97 to 99 °C
CCc1n[nH]c(=O)c(C#N)c1CC	166 to 168 °C
O=C(NC1CCNCC1)c1ccccc1	138 to 140 °C
COc1cc(OC)cc(C(O)CN)c1 (stereo not drawn)	92 to 94 °C
Cc1ccccc1NC(=O)NN	141 to 143 °C
CCN(C1CC1)S(=O)(=O)c1c(C)n[nH]c1C	97 to 99 °C
O=C(O)c1ccc(CN2CCC(O)CC2)cc1	219 to 221 °C
Oc1ccc(-n2cnnn2)cc1	209 to 211 °C
Cc1cc(Cl)c2cc([N+](=O)[O-])ccc2n1	140 to 142 °C
Sc1nc2ccccc2n1CCc1ccccc1	177 to 179 °C
Fc1ccc(-c2cnc(C3CCNCC3)[nH]2)cc1F	187 to 189 °C
Cc1cc2ccccc2c(=O)[nH]1	199 to 201 °C
CC(C)(C)NC(N)=S	171 to 175 °C
CCCCn1c(N)c(NCc2ccccc2OC)c(=O)[nH]c1=O	198 to 200 °C
COc1cc(C(=O)O)cc([N+](=O)[O-])c1OC	193 to 195 °C
Cn1cc(C=O)c(=O)n(C)c1=O	121 to 123 °C
O=C(CCl)N1CCCCCCC1	66 to 68 °C
Nc1ccc(OCc2ccco2)c(Cl)c1	72 to 74 °C

SMILES	melting point
CC(C)(C)OC(=O)Nc1ccc(CC(N)=S)cc1	160 to 162 °C
O=C(O)CC1Sc2ccccc2NC1=O (stereo not drawn)	188 to 190 °C
NC(=S)c1cncnc1N	197 to 199 °C
CC(C)S(=O)(=O)Nc1ccccc1F	52 to 54 °C
Clc1ccc2c(n1)NCC2	141 to 143 °C
NCc1ccccc1-c1ccc(CN2CCCC2=O)cc1	82 to 84 °C
COc1ccc2c(-c3ccccc3)cc(Cl)nc2c1	100 to 102 °C
CSc1ccc(N)cc1F	49 to 51 °C
CCn1cc(S(=O)(=O)Cl)c([N+](=O)[O-])n1	45 to 47 °C
NNC(=O)COc1ccc(Br)cc1	170 to 172 °C
Cc1ccc(-c2csc(N)n2)o1	102 to 104 °C
Cc1ccc(-c2noc(Cl)n2)cc1	40 to 42 °C
COC(=O)C(=O)CN1C(=O)c2ccccc2C1=O	134 to 136 °C
O=C(O)c1cccnc1OCC(F)(F)F	122 to 124 °C
O=C(O)Cn1cnc2ccc(Br)cc2c1=O	277 to 279 °C
COc1ccccc1-c1nnc(SCC(=O)O)n1N	181 to 183 °C
Cc1nc(-c2cc3c(s2)CCNC3)cs1	111 to 113 °C
Cc1ccccc1C(=O)NC1CCNCC1	129 to 131 °C
Fc1ccc2c(C3CCNCC3)c[nH]c2c1	225 to 227 °C
COCCNC(=S)NN	85 to 87 °C
CC(C(=O)O)C(NC(=O)OC(C)(C)C)c1ccccc1 (stereo not drawn)	71 to 73 °C
CCC1CCC2(CC1)NC(=O)N(CC(=O)O)C2=O (stereo not drawn)	214 to 216 °C
O=C1COc2cc(S)c(Cl)cc2N1	256 to 258 °C
O=C(c1ccc(Br)cc1)C1CCOCC1	99 to 101 °C

SMILES	melting point
CC(Cc1nc2ccccc2s1)(C(=O)O)c1ccccc1 (stereo not drawn)	193 to 195 °C
CC(=O)NCc1ccc(N)cc1	92 to 94 °C
COc1ccc(C(N)=NO)cc1OC	164 to 166 °C
O=C(c1ccc(Br)o1)N1CCNCC1	118 to 120 °C
Cc1ccc(-c2csc(NC(=O)CCl)n2)cc1	169 to 171 °C
O=C(O)C=CC1CC1	68 to 70 °C
Nc1cc(-c2cccc(C(F)(F)F)c2)no1	89 to 91 °C
Cc1nn(C2CCS(=O)(=O)C2)c(N2CCCCC2)c1C=O (stereo not drawn)	86 to 88 °C
CN(C)S(=O)(=O)c1ccc(Br)c(C(=O)O)c1	174 to 176 °C
FC(F)(F)c1nc(Cl)c2sccc2n1	95 to 97 °C
Cc1cc(O)cc(=O)o1	188 to 190 °C
CS(=O)(=O)CC1(CBr)CCOCC1	97 to 99 °C
NC(=C[N+](=O)[O-])N1CCOCC1	236 to 238 °C
Nc1ccccc1NS(=O)(=O)c1ccccc1	169 to 171 °C
CC(C)c1c(C(=O)O)cnn1-c1ccccn1	129 to 131 °C
Fc1ccc(-c2csc(Nc3ccccc3)n2)cc1	91 to 93 °C
Cc1ccc(N)c(OCC(=O)N(C)C)c1	83 to 85 °C
CC(O)c1nc2ncc(Br)cc2[nH]1 (stereo not drawn)	218 to 220 °C
O=Cc1ccc(N2CCNC(=O)C2)cc1	192 to 194 °C
O=C(O)C=Cc1cc(Cl)ccc1OCc1ccc(F)cc1	166 to 168 °C
Nc1ccnn1Cc1ccc(Cl)c(F)c1	68 to 70 °C
CC(SCC(=O)Nc1cccc(Br)c1)C(=O)O (stereo not drawn)	106 to 108 °C
Cc1c(NS(=O)(=O)c2ccc(N)c(N)c2)c(=O)n(-c2ccccc2)n1C	233 to 235 °C
CC(N)C(=O)NO (stereo not drawn)	159 to 161 °C

SMILES	melting point
N#CC(=Cc1ccc2c(c1)OCO2)C(=O)O	205 to 207 °C
CCC(C#N)NC(=O)OC(C)(C)C (stereo not drawn)	78 to 80 °C
Cc1cccc(COc2ccc(S(N)(=O)=O)cc2)c1	159 to 161 °C
CNS(=O)(=O)c1ccc2c(c1)NCC2	86 to 88 °C
COc1ccc(C)cc1-c1nnc(S)n1N	247 to 249 °C
CC(C)CNc1c(N)n(Cc2ccccc2)c(=O)[nH]c1=O	211 to 213 °C
COc1ccc(C(=O)O)cc1S(=O)(=O)N1CCCCC1C (stereo not drawn)	175 to 180 °C
CC(=O)Nc1ccc(O)c(S(=O)(=O)Cl)c1	164 to 166 °C
COc1cccc(NC(=O)c2ccccc2N(C)C(=O)CCC(=O)O)c1	125 to 127 °C
Cc1c(Cl)cccc1-n1ccnc1SCC(=O)O	144 to 146 °C
O=c1[nH]c(-c2cccc(Cl)c2)cs1	163 to 165 °C
CCc1cccc(CC)c1-n1ccnc1S	196 to 198 °C
NNc1ccc(S(=O)(=O)Nc2cccc(Cl)c2)cc1[N+](=O)[O-]	195 to 197 °C
Oc1ccc(/C=C/c2ccc3ccccc3n2)cc1	289 to 291 °C
Cc1cc(C)c2c(c1)NC(=O)C2=O	233 to 235 °C
CCOc1ccc(Cl)cc1C(C)=O	79 to 81 °C
CS(=O)c1c(N)cccc1Cl (stereo not drawn)	107 to 109 °C
NC(=O)c1coc(Br)c1	165 to 167 °C
NC(=O)CNCCC1CCCCC1	111 to 113 °C
Cc1cccc(-c2nc(N)n[nH]2)c1[N+](=O)[O-]	242 to 244 °C
O=C(O)c1ccc2ncoc2c1	242 to 244 °C
O=C(O)CNc1ccc(Br)cc1	154 to 156 °C
Cc1nc(C(=O)O)c2n1CCCC2	225 to 227 °C
CC(C)(O[Si](C)(C)C)C(N)=O	29 to 31 °C

SMILES	melting point
NC(=O)c1cc(OC2CCNCC2)ccn1	129 to 131 °C
O=C1NCCc2ccc(S(=O)(=O)Cl)cc21	188 to 190 °C
O=C(O)C1CCN(C(=O)/C=C/c2ccccc2)CC1	191 to 196 °C
O=C1CC(c2ccccc2)=NN1c1ccccc1	138 to 140 °C
ClCC12CC3CC(CC(C3)C1)C2	38 to 42 °C
CCCCNc1ccc(N2CCOCC2)cc1	59 to 61 °C
N#Cc1ccccc1Sc1ccccc1C(=O)O	213 to 216 °C
CC(C)OC(=O)CC(N)=S	68 to 70 °C
Nc1cccc(NC(=O)C2CC2)c1	133 to 135 °C
O=C(O)c1cccc(CN2CCS(=O)(=O)CC2)c1	230 to 232 °C
Cc1nc2nc(N)nn2c(C)c1CC(=O)O	260 to 264 °C
Sc1nnc(-c2ccc(Cl)cc2)n1Cc1ccco1	117 to 119 °C
CCC(CC)(CNC(=O)OC(C)(C)C)C(=O)O	130 to 132 °C
O=C(O)c1ccccc1CSc1nnc[nH]1	177 to 179 °C
O=C(CCl)Nc1cccc(S(=O)(=O)N=C2CCCN2)c1	156 to 160 °C
O=C(O)C1CC(=O)N(c2ccc(Br)cc2)C1 (stereo not drawn)	173 to 175 °C
CC(C)c1ccc(C(=O)N2CCNCC2)cc1	129 to 131 °C
O=[N+]([O-])c1cccc(-c2nccs2)c1	238 to 240 °C
CC(C)Cn1c(=O)[nH]c(=O)c2c(S)nc(CC3CC4CCC3C4)nc21 (stereo not drawn)	311 to 313 °C
O=C(O)C1CCCN(S(=O)(=O)c2cccnc2)C1 (stereo not drawn)	214 to 216 °C
COc1ccc2c(C)cc(NN)nc2c1	250 to 252 °C
CC(C)CC(C(=O)O)N1CCCCC1=O (stereo not drawn)	182 to 184 °C
Cc1ccc(C(=O)c2c(N)sc3c2CCC3)cc1F	177 to 179 °C
Cc1ccc(C(=O)O)c(C)n1	168 to 170 °C

SMILES	melting point
Cc1nccn1-c1ccc(C(F)(F)F)cc1N	183 to 185 °C
CCOc1cc(C=CC(=O)O)ccc1OCCOc1ccc(F)cc1	105 to 107 °C
O=C1OCCN1S(=O)(=O)Cl	94 to 96 °C
Cc1ccc(Nc2nnc(S)s2)cc1	219 to 221 °C
Cc1ccc(NC(=O)C=NO)cc1	145 to 147 °C
COc1nc(Cl)nc(Cl)n1	89 to 91 °C
Cc1cccc2cc(C(=O)O)oc12	216 to 218 °C
CC(C)C(=O)N1CCCC(C(=O)O)C1 (stereo not drawn)	131 to 133 °C
CCC(=O)c1ccc(C(=O)O)cc1	178 to 180 °C
Sc1nnnn1C1CCOCC1	154 to 156 °C
Cc1cccc(F)c1C(=O)O	114 to 116 °C
Cc1cccc(Nc2nnc(S)s2)c1	196 to 198 °C
Cc1nn(-c2ccc(Cl)cc2Cl)c(C)c1CC(=O)O	186 to 188 °C
COC(=O)C1CCCc2[nH]ncc21 (stereo not drawn)	84 to 86 °C
COc1ccc2[nH]c(C)c(C(=O)CCl)c2c1	224 to 226 °C
NCc1ccc(-n2cnc3ccccc32)cc1	72 to 74 °C
Cc1c[nH]c(=O)n1-c1ccc(C(=O)O)cc1	285 to 287 °C
NC(=O)c1cccc(OCCC(=O)O)c1	196 to 198 °C
N#Cc1cc(F)cc(F)c1[N+](=O)[O-]	95 to 97 °C
Nc1nc(-c2ccc(Cl)s2)cs1	98 to 100 °C
Fc1ccc(-c2nnc(Cl)c3ccccc23)cc1	186 to 188 °C
O=C(O)Cc1n[nH]c2ccccc12	167 to 169 °C
O=C1CC2CCCN2c2ccccc2N1 (stereo not drawn)	139 to 141 °C
